Here are results for 15 molecules from patent US4873334A, “4,7-dihydropyrazolo(3,4-b) pyridine derivatives” (Shionogi & Co., Ltd., priority 1982, dated 1989).

Data set [1] concerns Spontaneously Hypertensive Rats. Put plainly: Antihypertensive action, tail-cuff systolic pressure in unanaesthetized SHR after i.p. administration. It counts as in vivo, Spontaneously Hypertensive Rats (female). To be noted: 3 mg/kg intraperitoneally. As for the experimental part: Female Spontaneously Hypertensive Rats(hereinafter referred to as SHR) with 160 mmHg of systolic pressure were employed without anaesthetization. The systolic pressure was, after SHRs were kept warm at 50° C. for 2 to 3 minutes, bloodlessly measured by the tail-cuff method [Japan J. Pharmacol., 28, 617 (1978)] using a Physiograph and an Electrosphygmomanometer (DMP-4B, PE-300, Narco Biosystems, Inc., Houston). Each compound was intraperitoneally administered to SHR at a dose of 3 mg per kilogramm. Antihypertensive action is shown in a maximal decrease of blood pressure, i.e. a maximum difference between systolic pressures after and before the administration of the test compound; along with which the duration period is also shown.

Data set [2] relates to heart (contraction of apex). Kind of data set: Systole inhibitory action / negative inotropic action, contractile tension of isolated Langendorff-perfused heart. The arrangement: species or system Guinea pigs. As for the experimental part: (§1) Guinea pigs with 400-800g of body weight were hit strongly on their heads and the cartoid artery of each Guinea pigs was cut down in order to make them bloodless. The heart was isolated and perfused with at a constant pressure (50 cm H2 O) by the Langendorff method [Basic Pharmacology & Therapeutics, 9(4), 181 (1981)]. Krebs-Ringer bicarbonate solution (27° C.) containing 0.5% defibrinated blood was employed as a perfusate, into which a mixed gas of 95% oxygen and 5% carbon dioxide was continuously introduced. The flowing perfusate was led into a drop counter, and the changes of the flow i.e. increase and decrease are regarded as the respective indications for coronary vasodilation and vasoconstriction. The isomeric contraction of apex and the number of drops of the coronary perfusate were recorded on a Recticorder (RJG 3006, Nihon Koden) by way of an F-D Pick-up (SB-IT, Nihon Koden). […] Coronary vasodilating action is shown in changes of the quantiy of the perfusate, and systole inhibitory action is shown in those of inotropic tension.

Data set [3] concerns heart (coronary perfusate flow). Kind of data set: Coronary vasodilating action, perfusion flow change in isolated Langendorff-perfused heart. The arrangement: species or system Guinea pigs. As for the experimental part: as §1
The next data set is described as follows: in vivo. To be noted: mouse, female DS mice, intravenous. As for the experimental part:
In female DS mice (body weight: about 20g), LD50 value after the intravenous administration of the compounds was calculated by the Brownlee's up and down method [J. Am. Sat. As., 48, 262 (1953)].

Regarding `COC(=O)C1=C(C)NC(C)=C(C(=O)OC)C1c1ccccc1[N+](=O)[O-]` [(A), Nifedipine, reference compound], the “Duration of Effect” value in data set [1] (Table 1 (Part 1)) and in data set [1] (Table 1 (Part 2)) was 6 h in each case. For the same molecule, the “Maximum Hypotension” value in data set [1] (Table 1 (Part 1)) came to 45 mmHg. Further, in data set [1] (Table 1 (Part 2)), the “Maximum decrease in systolic pressure” value was 45 mmHg. The “Change of Contractile Tension” value in data set [2] (0.1 μg, Table 1 (Part 2)) is -15%; in data set [2] (0.1 μg, Table 3 (Part 1)) it was -15%; in data set [2] (1 μg, Table 3 (Part 1)) it was -57%. For the same molecule, the “Perfusion Flow Change” value in data set [3] (0.1 μg, Table 1 (Part 2)) is “+38%”; in data set [3] (0.1 μg, Table 2 (Part 1)), “+38%”; in data set [3] (1 μg, Table 2 (Part 1)), “+100%”.
Regarding `COC(=O)C1=C(C)Nc2c(c(C3CCCC3)nn2C)C1c1cccc([N+](=O)[O-])c1` (centres unmarked) [(B-1), Methyl 3-cyclopentyl-1,6-dimethyl-4-(3-nitrophenyl)-4,7-dihydropyrazolo[3,4-b]pyridine-5-carboxylate], the “Duration of Effect” value in data set [1] (Table 1 (Part 1)) was determined as 16 h. Besides, the “Maximum Hypotension” value in data set [1] (Table 1 (Part 1)) turned out to be 66 mmHg. Further, the “Change of Contractile Tension” value in data set [2] (0.1 μg, Table 3 (Part 1)) was 0%; in data set [2] (1 μg, Table 3 (Part 1)) it was 0%; in data set [2] (10 μg, Table 3 (Part 1)) it was 0%. Moreover, in “in vivo”, the LD50 (as a rule, the dose expected to kill half of the subjects tested) is 31.5 mg/kg. In addition, the “Perfusion Flow Change” value in data set [3] (0.1 μg, Table 2 (Part 1)) was “+26%”; in data set [3] (1 μg, Table 2 (Part 1)), “+73%”; in data set [3] (10 μg, Table 2 (Part 1)), “+180%”.
For the molecule `COCCOC(=O)C1=C(C)Nc2c(c(C3CCCC3)nn2C)C1c1ccccc1[N+](=O)[O-]` (centres unmarked) [(B-2), 2-Methoxyethyl 3-cyclopentyl-1,6-dimethyl-4-(2-nitrophenyl)-4,7-dihydropyrazolo[3,4-b]pyridine-5-carboxylate], in data set [1] (Table 1 (Part 2)), the “Duration of Effect” value was found to be 6 h and the “Maximum decrease in systolic pressure” value is given as 45 mmHg. Further, the “Change of Contractile Tension” value in data set [2] (0.1 μg, Table 1 (Part 2)) turned out to be 0%. The “Perfusion Flow Change” value in data set [3] (0.1 μg, Table 1 (Part 2)) is “+28%”.
Turning to `CCOC(=O)C1=C(C)Nc2c(c(C3CCCC3)nn2C)C1c1cccc([N+](=O)[O-])c1.Cl` (centres unmarked) [(C-1), Ethyl 3-cyclopentyl-1,6-dimethyl-4-(3-nitrophenyl)-4,7-dihydropyrazolo[3,4-b]pyridine-5-carboxylate hydrochloride], in data set [1] (Table 1 (Part 1)), the “Duration of Effect” value stood at 14 h. Moreover, the “Maximum Hypotension” value in data set [1] (Table 1 (Part 1)) is 42 mmHg. In addition, the “Change of Contractile Tension” value in data set [2] (0.1 μg, Table 3 (Part 1)) came to 0%; in data set [2] (1 μg, Table 3 (Part 1)), 0%; in data set [2] (10 μg, Table 3 (Part 1)), 0%. The molecule further came in with an LD50 in “in vivo” of 50.6 mg/kg. Besides, the “Perfusion Flow Change” value in data set [3] (0.1 μg, Table 2 (Part 1)) is recorded as “+40%”; in data set [3] (1 μg, Table 2 (Part 1)) it was “+79%”; in data set [3] (10 μg, Table 2 (Part 1)), “+93%”.
For the molecule `COCCOC(=O)C1=C(C)Nc2c(c(C3CCCC3)nn2C)C1c1cccc([N+](=O)[O-])c1` (centres unmarked) [(C-2), 2-Methoxyethyl 3-cyclopentyl-1,6-dimethyl-4-(3-nitrophenyl)-4,7-dihydropyrazolo[3,4-b]pyridine-5-carboxylate], in data set [1] (Table 1 (Part 2)), the “Duration of Effect” value was 6 h and the “Maximum decrease in systolic pressure” value was found to be 36 mmHg. The “Change of Contractile Tension” value in data set [2] (0.1 μg, Table 1 (Part 2)) came to 0%. Moreover, in data set [3] (0.1 μg, Table 1 (Part 2)), the “Perfusion Flow Change” value is given as “+15%”.
In the case of `COCCOC(=O)C1=C(C)Nc2c(c(C3CCCCC3)nn2C)C1c1ccccc1[N+](=O)[O-]` (centres unmarked) [(D), 2-Methoxyethyl 3-cyclohexyl-1,6-dimethyl-4-(2-nitrophenyl)-4,7-dihydropyrazolo[3,4-b]pyridine-5-carboxylate], in data set [1] (Table 1 (Part 2)), the “Duration of Effect” value was determined as 6 h and the “Maximum decrease in systolic pressure” value is given as 65 mmHg. For the same molecule, in data set [2] (0.1 μg, Table 1 (Part 2)), the “Change of Contractile Tension” value is recorded as 0%. Also, the “Perfusion Flow Change” value in data set [3] (0.1 μg, Table 1 (Part 2)) is given as “+32%”.
Regarding `COCCOC(=O)C1=C(C)Nc2c(c(CC3CCCC3)nn2C)C1c1ccccc1[N+](=O)[O-]` (centres unmarked) [(E), 2-Methoxyethyl 3-cyclopentylmethyl-1,6-dimethyl-4-(2-nitrophenyl)-4,7-dihydropyrazolo[3,4-b]pyridine-5-carboxylate], in data set [1] (Table 1 (Part 2)), the “Duration of Effect” value was 6 h and the “Maximum decrease in systolic pressure” value came to 26 mmHg. Moreover, the “Change of Contractile Tension” value in data set [2] (0.1 μg, Table 1 (Part 2)) worked out at 0%. In addition, in data set [3] (0.1 μg, Table 1 (Part 2)), the “Perfusion Flow Change” value is reported as “+20%”.
For `CC1=C(C(=O)OCCCOC(C)C)C(c2ccccc2[N+](=O)[O-])c2c(C3CCCC3)nn(C)c2N1` (centres unmarked) [(F), 3-Isopropoxypropyl 3-cyclopentyl-1,6-dimethyl-4-(2-nitrophenyl)-4,7-dihydropyrazolo[3,4-b]pyridine-5-carboxylate], in data set [1] (Table 1 (Part 2)), the “Duration of Effect” value is 6 h and the “Maximum decrease in systolic pressure” value is listed as 53 mmHg. Besides, the “Change of Contractile Tension” value in data set [2] (0.1 μg, Table 1 (Part 2)) is listed as 0%. Also, the “Perfusion Flow Change” value in data set [3] (0.1 μg, Table 1 (Part 2)) is reported as “+65%”.
Turning to `CC1=C(C(=O)OCCOC2CCCC2)C(c2ccccc2[N+](=O)[O-])c2c(C3CCCC3)nn(C)c2N1` (centres unmarked) [(G), 2-Cyclopentyloxyethyl 3-cyclopentyl-1,6-dimethyl-4-(2-nitrophenyl)-4,7-dihydropyrazolo[3,4-b]pyridine-5-carboxylate], in data set [1] (Table 1 (Part 2)), the “Duration of Effect” value amounted to 6 h and the “Maximum decrease in systolic pressure” value is on record as 53 mmHg. Further, the “Change of Contractile Tension” value in data set [2] (0.1 μg, Table 1 (Part 2)) was 0%. Besides, in data set [3] (0.1 μg, Table 1 (Part 2)), the “Perfusion Flow Change” value is given as “+67%”.
In the case of `CC1=C(C(=O)OCC2CCCO2)C(c2ccccc2[N+](=O)[O-])c2c(C3CCCC3)nn(C)c2N1` (centres unmarked) [(H), 2-Tetrahydrofurylmethyl 3-cyclopentyl-1,6-dimethyl-4-(2-nitrophenyl)-4,7-dihydropyrazolo[3,4-b]pyridine-5-carboxylate], the “Maximum decrease in systolic pressure” value in data set [1] (Table 1 (Part 2)) amounted to 0 mmHg. For the same molecule, the “Change of Contractile Tension” value in data set [2] (0.1 μg, Table 1 (Part 2)) is 0%. For the same molecule, the “Perfusion Flow Change” value in data set [3] (0.1 μg, Table 1 (Part 2)) is given as “+34%”.
As to `CC1=C(C(=O)OCCOc2ccccc2)C(c2ccccc2[N+](=O)[O-])c2c(C3CCCC3)nn(C)c2N1` (centres unmarked) [(I), 2-Phenoxyethyl 3-cyclopentyl-1,6-dimethyl-4-(2-nitrophenyl)-4,7-dihydropyrazolo[3,4-b]pyridine-5-carboxylate], in data set [1] (Table 1 (Part 2)), the “Duration of Effect” value came out at 6 h and the “Maximum decrease in systolic pressure” value is recorded as 74 mmHg. For the same molecule, in data set [2] (0.1 μg, Table 1 (Part 2)), the “Change of Contractile Tension” value was determined as 0%. For the same molecule, the “Perfusion Flow Change” value in data set [3] (0.1 μg, Table 1 (Part 2)) is “+43%”.
`CSCCOC(=O)C1=C(C)Nc2c(c(C3CCCC3)nn2C)C1c1ccccc1[N+](=O)[O-]` (centres unmarked) [(J), 2-Methylthioethyl 3-cyclopentyl-1,6-dimethyl-4-(2-nitrophenyl)-4,7-dihydropyrazolo[3,4-b]pyridine-5-carboxylate]: in data set [1] (Table 1 (Part 2)), the “Duration of Effect” value is 6 h and the “Maximum decrease in systolic pressure” value was 20 mmHg. Also, the “Change of Contractile Tension” value in data set [2] (0.1 μg, Table 1 (Part 2)) came out at 0%. For the same molecule, the “Perfusion Flow Change” value in data set [3] (0.1 μg, Table 1 (Part 2)) is listed as “+68%”.
For the molecule `CC1=C(C(=O)OCCc2ccccc2)C(c2ccccc2[N+](=O)[O-])c2c(C3CCCC3)nn(C)c2N1` (centres unmarked) [(K), Phenethyl 3-cyclopentyl-1,6-dimethyl-4-(2-nitrophenyl)-4,7-dihydropyrazolo[3,4-b]pyridine-5-carboxylate], in data set [1] (Table 1 (Part 2)), the “Duration of Effect” value stood at 6 h and the “Maximum decrease in systolic pressure” value was determined as 75 mmHg. The “Change of Contractile Tension” value in data set [2] (0.1 μg, Table 1 (Part 2)) worked out at 0%. Besides, the “Perfusion Flow Change” value in data set [3] (0.1 μg, Table 1 (Part 2)) is on record as “+63%”.
Turning to `CC1=C(C(=O)OCCc2ccc(Cl)cc2)C(c2cccc([N+](=O)[O-])c2)c2c(C3CCCC3)nn(C)c2N1` (centres unmarked) [(L), 4-Chlorophenethyl 3-cyclopentyl-1,6-dimethyl-4-(3-nitrophenyl)-4,7-dihydropyrazolo[3,4-b]pyridine-5-carboxylate], in data set [1] (Table 1 (Part 2)), the “Duration of Effect” value was 6 h and the “Maximum decrease in systolic pressure” value is recorded as 74 mmHg.
In the case of `COc1ccc(CCOC(=O)C2=C(C)Nc3c(c(C4CCCC4)nn3C)C2c2cccc([N+](=O)[O-])c2)cc1OC` (centres unmarked) [(M), 3,4-Dimethoxyphenethyl 3-cyclopentyl-1,6-dimethyl-4-(3-nitrophenyl)-4,7-dihydropyrazolo[3,4-b]pyridine-5-carboxylate], in data set [1] (Table 1 (Part 2)), the “Duration of Effect” value was 6 h and the “Maximum decrease in systolic pressure” value is on record as 86 mmHg.
